Starred links: 1 amine or outer side, 2 acyl side, 3 side chain; linkers in the order of their positions; H or OH if unused. Positions of bridges follow the written chain, without caps; N, C: chain ends. Non-standard residues stand in square brackets, D forms with d. Residues, ends and D or L forms follow the SMILES beside them. ξ: configuration not given here. *: point of attachment. pTerphenylCO(4''-OnC5H11) = CCCCCOc1ccc(-c2ccc(-c3ccc(C(=O)*)cc3)cc2)cc1; Orn(4R-OH,5R-OH) = O=C([C@H](C[C@@H](O)[C@@H](O)N[*:3])N[*:1])[*:2]; hTyr(3S-OH,4S-OH) = N[C@H](C(=O)O)[C@H](O)[C@@H](O)c1ccc(O)cc1; Pro(3S-OH,4S-Me) = C[C@H]1CN[C@H](C(=O)O)[C@H]1O; ξPro(4R-OH) = O=C(O)C1C[C@@H](O)CN1
Test system: Human Renal Glomerular Endothelial Cells (HRGEC)
Assay: Oxygen and glucose deprivation followed by replenishment, cell survival (calcein AM), HRGEC
Format: cell-based
Procedure: Anidulafungin and micafungin were tested on Human Renal Glomerular Endothelial Cells (HRGEC, Innoprot P10665), on Human Renal Proximal Tubular Epithelial Cells (HRPTEpiC, Innoprot P10662), on Human Astrocytes (HA, caltag SC-1800), on Human Cardiac Microvascular Endothelial Cells (HCMEC, Caltag SC-6000), on Human Hepatic Sinusoidal Endothelial Cells (HHSEC, Caltag SC-5000), on Rat Primary Kidney Glomerular Endothelial cells (Cellbiologics, RN-6014G) and on Bovine Brain Microvascular Endothelial Cells (BBMEC, Caltag SC-B100).
In a first phase, these isolated, purified and cryopreserved cells are thawed and multiplied according to the supplier's recommendations in T75 or T175 flasks pre-coated with 2 μg of fibronectin/[…] (CORNING) for HRGEC, HCMEC, HHSEC and BBMEC, or 2 μg poly-L-lysin/cm^2 (Caltag SC-0403) for HRPTEpiC and HA, or 15 mL/flask 175 cm^2 gelatin-based solution (Cellbiologics) in the presence of endothelial cell supplemented growth medium ECM (P60104, INNOPROT, Caltag, SC-1001) for HRGEC, HCMEC, HHSEC, RPKGEC or BBMEC, or astrocyte cell supplemented growth medium AM (Caltag SC-1801) for HA or epithelial cell supplemented growth medium EpiCM (P60106, INNOPROT) for HRPTEpiC, at 37° C. under 5% CO2 and saturated humidity until their confluency. They are then harvested by trypsinization according to the method described by the supplier for exactly 5 minutes and then reseeded in new flasks a maximum of three times.
To carry out the oxygen and glucose deprivation test followed by their replenishment, the cells will be seeded in 96-well black plates with transparent flat bottom (GREINER). Once a sufficient number of cells has been obtained to allow seeding of 2000 to 15000 cells per well of 96-well plates depending on the cell type, the cells are seeded in these 96-well plates previously coated with an extracellular matrix as listed above for the flasks. The cells are cultured for 5 to 8 days according to the cell type, in the presence of the same growth medium as in the flask as described above except for HRGEC and HRPTEpiC for which DMEM (DUTSCHER) with 1 g/L of supplemented glucose is used, at 37° C. under 5% CO2 and saturated humidity to obtain confluency.
On the first day of oxygen and glucose deprivation, (5th, 6th, 7th or 8th day of culture), the culture conditions are drastically changed. The medium of all plates is removed and replaced by DMEM (DUTSCHER) medium without glucose and supplemented only with 1% penicillin-streptomycin (DUTSCHER). Anidulafungin or micafungin dissolved in dimethyl sulfoxide (DMSO) is then added to each well at the desired concentration, resulting in a maximum of 1% DMSO, and the plates are placed under hypoxia at <1% 02 and 5% CO2 at 37° C. for 24 hours of culture. Each compound was tested in a concentration range.
After 24 hours, the growth medium is changed and replaced by a richer medium, DMEM (DUTSCHER) at 1 g/L glucose and 2% FBS (INNOPROT) and 1% penicillin-streptomycin (DUTSCHER). These media will have been pre-equilibrated at 37° C. in advance. The cells are then returned to culture at 37° C. under 20% 02 and 5% CO2 for 22h.
After 22 hours of reoxygenation, the potential protective effect of anidulafungin or micafungin is measured by a cell viability test using calcein AM (CORNING), which is a dye substrate. The calcein AM can easily cross the cell membrane of the viable cells. The AM ester groups mask the part of the molecule that chelates calcium. Once inside the cells, the (non-fluorescent) calcein AM is hydrolyzed to (fluorescent) calcein by endogenous esterases. The resulting calcein molecule binds to calcium inside the cell and remains trapped inside the cell. These molecules emit strong green fluorescence when subjected to […] of a particular wavelength (495 nm). Since dead cells lack esterase activity, only living cells are labelled.
This cell viability test is performed in two steps. […]

[1] = [Anidulafungin] log μM 0.7781513
[2] = [Anidulafungin] log μM 1.079181
[3] = [Anidulafungin] log μM 1.255273

With `CCCCCOc1ccc(-c2ccc(-c3ccc(C(=O)N[C@H]4C[C@@H](O)[C@@H](O)NC(=O)[C@@H]5[C@@H](O)[C@@H](C)CN5C(=O)[C@H]([C@@H](C)O)NC(=O)[C@H]([C@H](O)[C@@H](O)c5ccc(O)cc5)NC(=O)C5C[C@@H](O)CN5C(=O)[C@H]([C@@H](C)O)NC4=O)cc3)cc2)cc1` (stereo partly drawn) [Anidulafungin] ({pTerphenylCO(4''-OnC5H11)}-[Orn(4R-OH,5R-OH)]T[ξPro(4R-OH)][hTyr(3S-OH,4S-OH)]T[Pro(3S-OH,4S-Me)]; lactam 1-C) the “Globalfluo assay 1” value ([Anidulafungin] log μM 0) was 1595273 arbitrary units, the “Globalfluo assay 2” value ([Anidulafungin] log μM 0) was 2299957 arbitrary units and the “Globalfluo assay 3” value ([Anidulafungin] log μM 0) was 2320330 arbitrary units. The Mean globalfluo ([Anidulafungin] log μM 0) was 2071853 arbitrary units, the “Survival rate (%)” value ([Anidulafungin] log μM 0) was −6% and the “Globalfluo assay 1” value ([Anidulafungin] log μM 0.30103) was 3108717 arbitrary units. For the same molecule, the “Globalfluo assay 2” value ([Anidulafungin] log μM 0.30103) was 8079028 arbitrary units, the “Globalfluo assay 3” value ([Anidulafungin] log μM 0.30103) was 4587276 arbitrary units and the Mean globalfluo ([Anidulafungin] log μM 0.30103) was 5258340 arbitrary units. The “Survival rate (%)” value ([Anidulafungin] log μM 0.30103) was 7%, the “Globalfluo assay 1” value ([Anidulafungin] log μM 0.60206) was 6404501 arbitrary units and the “Globalfluo assay 2” value ([Anidulafungin] log μM 0.60206) was 5391467 arbitrary units. The “Globalfluo assay 3” value ([Anidulafungin] log μM 0.60206) was 4055726 arbitrary units, the Mean globalfluo ([Anidulafungin] log μM 0.60206) was 5283898 arbitrary units and the “Survival rate (%)” value ([Anidulafungin] log μM 0.60206) was 7%. For the same molecule, the “Globalfluo assay 1” value [1] was 1844220 arbitrary units, the “Globalfluo assay 2” value [1] was 8446890 arbitrary units and the “Globalfluo assay 3” value [1] was 6499110 arbitrary units. The Mean globalfluo [1] was 5596740 arbitrary units, the “Survival rate (%)” value [1] was 8% and the “Globalfluo assay 1” value ([Anidulafungin] log μM 0.90309) was 7152564 arbitrary units. The “Globalfluo assay 2” value ([Anidulafungin] log μM 0.90309) was 8021501 arbitrary units, the “Globalfluo assay 3” value ([Anidulafungin] log μM 0.90309) was 6792572 arbitrary units and the Mean globalfluo ([Anidulafungin] log μM 0.90309) was 7322212 arbitrary units. For the same molecule, the “Survival rate (%)” value ([Anidulafungin] log μM 0.90309) was 15%, the “Globalfluo assay 1” value ([Anidulafungin] log μM 1) was 8082278 arbitrary units and the “Globalfluo assay 2” value ([Anidulafungin] log μM 1) was 8981812 arbitrary units. For the same molecule, the “Globalfluo assay 3” value ([Anidulafungin] log μM 1) was 10460790 arbitrary units, the Mean globalfluo ([Anidulafungin] log μM 1) was 9174960 arbitrary units and the “Survival rate (%)” value ([Anidulafungin] log μM 1) was 23%. The “Globalfluo assay 1” value [2] was 12175690 arbitrary units, the “Globalfluo assay 2” value [2] was 10104310 arbitrary units and the “Globalfluo assay 3” value [2] was 9396440 arbitrary units. The Mean globalfluo [2] was 10558813 arbitrary units, the “Survival rate (%)” value [2] was 28% and the “Globalfluo assay 1” value ([Anidulafungin] log μM 1.20412) was 12170420 arbitrary units. The “Globalfluo assay 2” value ([Anidulafungin] log μM 1.20412) was 9545764 arbitrary units, the “Globalfluo assay 3” value ([Anidulafungin] log μM 1.20412) was 9735499 arbitrary units and the Mean globalfluo ([Anidulafungin] log μM 1.20412) was 10483894 arbitrary units. For the same molecule, the “Survival rate (%)” value ([Anidulafungin] log μM 1.20412) was 28%, the “Globalfluo assay 1” value [3] was 10855790 arbitrary units and the “Globalfluo assay 2” value [3] was 12347330 arbitrary units. For the same molecule, the “Globalfluo assay 3” value [3] was 7837444 arbitrary units, the Mean globalfluo [3] was 10346855 arbitrary units and the “Survival rate (%)” value [3] was 27%. For the same molecule, the “Globalfluo assay 1” value ([Anidulafungin] log μM 1.30103) was 10143140 arbitrary units, the “Globalfluo assay 2” value ([Anidulafungin] log μM 1.30103) was 10354290 arbitrary units and the “Globalfluo assay 3” value ([Anidulafungin] log μM 1.30103) was 10227990 arbitrary units. The Mean globalfluo ([Anidulafungin] log μM 1.30103) was 10241807 arbitrary units and the “Survival rate (%)” value ([Anidulafungin] log μM 1.30103) was 27%.
